One may read the melting point as the temperature of the solid-liquid transition.

Read-outs that look alike come from different tables or passages of the source. Bounds are passed on as bounds.

Data set [1] deals with SMN2 minigene (full length SMN2 minigene mRNA containing SMN2 exon 7). Put plainly: SMN2 minigene mRNA splicing RT-qPCR assay in cultured cells. Particulars: Homo sapiens, HEK293-H, read-out: EC1.5x for production of full length SMN2 mRNA. The class given is cell-based, human. Put shortly:
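HEK293H cells stably carrying the SMN2-A minigene treated 24 h at 37° C with compound (DMSO, 200× stock), then lysed. Multiplex RT-qPCR (SMN primers 0.4 μM final; 40 cycles) measures full-length exon 7-containing minigene mRNA, normalized to GAPDH and to vehicle; EC1.5x derived and binned by stars.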
Background: In qPCR the cycle at which signal appears reflects the starting amount.

A further data set concerns Smn protein. Put plainly: Smn protein assay in cultured cells (SMN HTRF). Particulars: 48 hours; for EC1.5x (concentration giving 1.5-fold Smn protein increase): SMA Type 1 patient fibroblast cells (GM03813), 7-point concentration curve, SMN HTRF, concentration producing 1.5 times Smn protein vs DMSO vehicle control, read-out: EC1.5x for Smn protein expression; for maximum fold (Fold) increase of Smn protein: SMA patient fibroblast cells, 7-point concentration data, fold increase relative to vehicle control (SMN HTRF). The class given is cell-based, human. Put shortly:
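Lysates in RIPA with protease inhibitors are incubated overnight at room temperature with HTRF anti-SMN antibodies. EC1.5x is derived from fold increase in ΔF over vehicle.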

[2] abbreviates: HEK293H cells stably transfected with SMN2-A minigene, 24 hours, 7-point concentration curve, 1.5-fold relative to vehicle-treated cells.

For `Cc1cn2cc(-c3cc4ccc(NC5CCNCC5)cc4oc3=O)nc2c(C)n1` [Compound 562, 3-(6,8-dimethylimidazo[1,2-a]pyrazin-2-yl)-7-(piperidin-4-ylamino)-2H-chromen-2-one], the melting point lay in the range of 255 to 261 °C. In data set [1] (setting [2]), the EC (1.5-fold) was below 0.1 µM. Besides, in the data set on Smn protein, the EC1.5x (concentration giving 1.5-fold Smn protein increase) is below 300 nM; the “maximum fold (Fold) increase of Smn protein” value (“maximum fold (Fold) increase” for short) is “**** (fold increase between >1.5 and ≤1.65)”.
`Cc1cn2cc(-c3cc4ccc(CCN(CCO)CCO)cc4oc3=O)nc2c(C)n1` [Compound 875, 7-{2-[bis(2-hydroxyethyl)amino]ethyl}-3-(6,8-dimethylimidazo[1,2-a]pyrazin-2-yl)-2H-chromen-2-one] returned a melting point of 184 to 188 °C. In data set [1] (setting [2]), the EC (1.5-fold) is below 0.1 µM. Moreover, in the data set with Smn protein, the EC1.5x (concentration giving 1.5-fold Smn protein increase) was below 300 nM; the “maximum fold (Fold) increase” value was “**** (fold increase between >1.5 and ≤1.65)”.
On to `COc1ccc(-c2cc3ccc(N4CCN[C@H](C)C4)cc3oc2=O)cc1` [Compound 448, 3-(4-methoxyphenyl)-7-[(3R)-3-methylpiperazin-1-yl]-2H-chromen-2-one], for which the melting point lay in the range of 123 to 126 °C. Besides, the EC (1.5-fold) in data set [1] (setting [2]) lay within 1 to 3 µM. In addition, the “maximum fold (Fold) increase” value in the data set with Smn protein is “* (maximum fold increase of ≤1.2)”.
The compound `CCCN1CCN(c2ccc3cc(-c4cc5cc(C)nc(C)c5o4)c(=O)oc3c2)CC1` [Compound 815, 3-(5,7-dimethylfuro[2,3-c]pyridin-2-yl)-7-(4-propylpiperazin-1-yl)-2H-chromen-2-one] gave a melting point of 259 to 262 °C. The EC (1.5-fold) in data set [1] (setting [2]) was below 0.1 µM. Further, in the data set on Smn protein, the EC1.5x (concentration giving 1.5-fold Smn protein increase) is below 300 nM; the “maximum fold (Fold) increase” value is “**** (fold increase between >1.5 and ≤1.65)”.
In the case of `Cc1ccn2cc(-c3cc4ccc(N(C)CCN(C)C)cc4oc3=O)nc2n1` [Compound 226, 7-{[2-(dimethylamino)ethyl](methyl)amino}-3-(7-methylimidazo[1,2-a]pyrimidin-2-yl)-2H-chromen-2-one], the melting point was in the range of 188 to 191 °C. Also, in data set [1] (setting [2]), the EC (1.5-fold) is 3 to 30 µM. For the same compound, the “maximum fold (Fold) increase” value in the data set on Smn protein was “* (maximum fold increase of ≤1.2)”.
For `COc1ccncc1-c1cc2ccc(N3CCNCC3)cc2oc1=O` [Compound 234, 3-(4-methoxypyridin-3-yl)-7-(piperazin-1-yl)-2H-chromen-2-one], the melting point fell in the range of 179 to 181 °C. For the same compound, the EC (1.5-fold) in data set [1] (setting [2]) lay within 3 to 30 µM. The “maximum fold (Fold) increase” value in the data set on Smn protein was “* (maximum fold increase of ≤1.2)”.
The compound `Cc1cc(F)c2nc(-c3cc4ccc(N5CCNCC5)cc4oc3=O)cn2c1` [Compound 356, 3-(8-fluoro-6-methylimidazo[1,2-a]pyridin-2-yl)-7-(piperazin-1-yl)-2H-chromen-2-one] returned a melting point of 276 to 286 °C. In data set [1] (setting [2]), the EC (1.5-fold) is below 0.1 µM. In addition, the “maximum fold (Fold) increase” value in the data set on Smn protein was “** (fold increase between >1.2 and ≤1.35)”.
`Cc1cn2cc(-c3cc4ccc(N5CCCN(C)CC5)cc4oc3=O)nc2s1` [Compound 153, 7-(4-methyl-1,4-diazepan-1-yl)-3-(2-methylimidazo[2,1-b][1,3]thiazol-6-yl)-2H-chromen-2-one] returned a melting point of 179 to 184 °C. Further, in data set [1] (setting [2]), the EC (1.5-fold) lay in the range of 1 to 3 µM. For the same compound, the “maximum fold (Fold) increase” value with Smn protein was “*** (fold increase between >1.35 and ≤1.5)”.
In turn, `O=c1oc2c(F)c(N3CCNCC3)ccc2cc1-c1ccccn1` [Compound 155, 8-fluoro-7-(piperazin-1-yl)-3-(pyridin-2-yl)-2H-chromen-2-one] displayed a melting point of 147 to 153 °C. Besides, in data set [1] (24 h), the EC (1.5-fold) was 3 to 30 µM. In the data set on Smn protein, the “maximum fold (Fold) increase” value is on record as “* (maximum fold increase of ≤1.2)”.
With `Cc1ccc2nc(-c3cc4ccc(N5CCCNCC5)cc4oc3=O)cn2n1` [Compound 631, 7-(1,4-diazepan-1-yl)-3-(6-methylimidazo[1,2-b]pyridazin-2-yl)-2H-chromen-2-one], the melting point is 252 to 255 °C. Further, the EC (1.5-fold) in data set [1] (setting [2]) is 0.3 to 1 µM. The “maximum fold (Fold) increase” value with Smn protein is listed as “* (maximum fold increase of ≤1.2)”.
Turning to `O=c1oc2cc(N3CCNCC3)ccc2cc1-c1cn2cc(Cl)sc2n1` [Compound 494, 3-(2-chloroimidazo[2,1-b][1,3]thiazol-6-yl)-7-(piperazin-1-yl)-2H-chromen-2-one], the melting point lay within 240 to 242 °C. Also, the EC (1.5-fold) in data set [1] (setting [2]) was in the range of 0.1 to 0.3 µM. The “maximum fold (Fold) increase” value with Smn protein was “* (maximum fold increase of ≤1.2)”.
As to `O=c1oc2cc(N3CCNCC3)ccc2cc1-c1cn2cccc(F)c2n1` [Compound 149, 3-(8-fluoroimidazo[1,2-a]pyridin-2-yl)-7-(piperazin-1-yl)-2H-chromen-2-one], the melting point is 236 to 238 °C. Further, the EC (1.5-fold) in data set [1] (setting [2]) fell in the range of 1 to 3 µM. Besides, the “maximum fold (Fold) increase” value with Smn protein was “*** (fold increase between >1.35 and ≤1.5)”.
`C[C@@H]1CN(c2ccc3cc(-c4cn5ccc(C(F)(F)F)cc5n4)c(=O)oc3c2)C[C@H](C)N1` [Compound 116, 7-[(3R,5S)-3,5-dimethylpiperazin-1-yl]-3-[7-(trifluoromethyl)imidazo[1,2-a]pyridin-2-yl]-2H-chromen-2-one] displayed a melting point of 257 to 264 °C. For the same compound, the EC (1.5-fold) in data set [1] (setting [2]) lay in the range of 0.3 to 1 µM. Besides, the “maximum fold (Fold) increase” value with Smn protein was “** (fold increase between >1.2 and ≤1.35)”.
In turn, `C[C@@H]1CN(c2ccc3cc(-c4nc5ccccc5o4)c(=O)oc3c2)C[C@H](C)N1` [Compound 23, 3-(1,3-benzoxazol-2-yl)-7-[(3R,5S)-3,5-dimethylpiperazin-1-yl]-2H-chromen-2-one] gave a melting point of 230 to 232 °C. Also, the EC (1.5-fold) in data set [1] (setting [2]) was 1 to 3 µM. For the same compound, in the data set with Smn protein, the “maximum fold (Fold) increase” value was “* (maximum fold increase of ≤1.2)”.
For the compound `Cc1cccn2cc(-c3cc4ccc(N5CCN[C@H](C)C5)cc4oc3=O)nc12` [Compound 247, 3-(8-methylimidazo[1,2-a]pyridin-2-yl)-7-[(3R)-3-methylpiperazin-1-yl]-2H-chromen-2-one], the melting point was 299 °C (dec.). For the same compound, in data set [1] (setting [2]), the EC (1.5-fold) is 0.1 to 0.3 µM. Moreover, the “maximum fold (Fold) increase” value with Smn protein is “** (fold increase between >1.2 and ≤1.35)”.
Turning to `CN1CCN(c2ccc3cc(-c4cn5ncccc5n4)c(=O)oc3c2)CC1` [Cpd 128, 3-(imidazo[1,2-b]pyridazin-2-yl)-7-(4-methylpiperazin-1-yl)-2H-chromen-2-one], the melting point was 284 to 285 °C. The EC (1.5-fold) in data set [1] (setting [2]) was 1 to 3 µM. Also, in the data set with Smn protein, the EC1.5x (concentration giving 1.5-fold Smn protein increase) lay within 3000 to 10000 nM; the “maximum fold (Fold) increase” value was “*** (fold increase between >1.35 and ≤1.5)”.
`Cc1cn2cc(-c3cc4ccc(N5CCC6(CCNC6)C5)cc4oc3=O)nc2c(C)n1` (centres unmarked) [Compound 945, 7-(2,7-diazaspiro[4.4]non-2-yl)-3-(6,8-dimethylimidazo[1,2-a]pyrazin-2-yl)-2H-chromen-2-one] gave a melting point of 190 to 200 °C. In addition, in data set [1] (setting [2]), the EC (1.5-fold) was below 0.1 µM. In addition, in the data set on Smn protein, the EC1.5x (concentration giving 1.5-fold Smn protein increase) is below 300 nM and the “maximum fold (Fold) increase” value is “***** (fold increase >1.65)”.
`Cc1ccn2nc(-c3cc4ccc(N5CCCNCC5)cc4oc3=O)cc2c1` [Compound 309, 7-(1,4-diazepan-1-yl)-3-(5-methylpyrazolo[1,5-a]pyridin-2-yl)-2H-chromen-2-one] displayed a melting point of 203 to 206 °C. In addition, in data set [1] (setting [2]), the EC (1.5-fold) fell in the range of 0.3 to 1 µM. In the data set on Smn protein, the “maximum fold (Fold) increase” value was “** (fold increase between >1.2 and ≤1.35)”.
In turn, `Cc1ccc2oc(-c3cc4ccc(N5CCN6CCC[C@@H]6C5)cc4oc3=O)cc2n1` [Compound 721, 7-[(8aR)-hexahydropyrrolo[1,2-a]pyrazin-2(1H)-yl]-3-(5-methylfuro[3,2-b]pyridin-2-yl)-2H-chromen-2-one] gave a melting point of 195 to 198 °C. In addition, the EC (1.5-fold) in data set [1] (setting [2]) was 1 to 3 µM. The “maximum fold (Fold) increase” value in the data set with Smn protein is listed as “* (maximum fold increase of ≤1.2)”.
As for `C[C@H]1CN(c2ccc3cc(-c4cn5cc(C6CC6)cc(F)c5n4)c(=O)oc3c2)CCN1` [Compound 498, 3-(6-cyclopropyl-8-fluoroimidazo[1,2-a]pyridin-2-yl)-7-[(3S)-3-methylpiperazin-1-yl]-2H-chromen-2-one], the melting point was in the range of 254 to 263 °C. In addition, the EC (1.5-fold) in data set [1] (setting [2]) lay within 0.3 to 1 µM. The “maximum fold (Fold) increase” value with Smn protein is reported as “* (maximum fold increase of ≤1.2)”.
For `COc1cc(OC)cc(-c2cc3ccc(N4CCN[C@@H](C)C4)cc3oc2=O)c1` [Compound 413, 3-(3,5-dimethoxyphenyl)-7-[(3S)-3-methylpiperazin-1-yl]-2H-chromen-2-one] the same measures were 149 to 151 °C, 1 to 3 µM and “* (maximum fold increase of ≤1.2)”.
`Cc1cc(C)c2nc(-c3cc4ccc(N5C[C@@H](C)N[C@@H](C)C5)cc4oc3=O)cn2c1` [Compound 262, 3-(6,8-dimethylimidazo[1,2-a]pyridin-2-yl)-7-[(3R,5S)-3,5-dimethylpiperazin-1-yl]-2H-chromen-2-one] yielded a melting point of 227 to 237 °C. For the same compound, the EC (1.5-fold) in data set [1] (setting [2]) is 0.3 to 1 µM. Moreover, the “maximum fold (Fold) increase” value in the data set on Smn protein is “** (fold increase between >1.2 and ≤1.35)”.
